# Measured values: US6436977B1, “Dosing regimens for lasofoxifene” (Pfizer Inc., priority 1999, dated 2002)
# Like-named read-outs stand apart in the source and are kept apart here.
# Assay: Plasma levels of lasofoxifene after a single oral dose in healthy postmenopausal women (LC-MS-MS)
# Format: in vivo, human
# Details: for concentration at 1 h: 1 hour after dosing; for concentration at 2 h: 2 hours after dosing; for concentration at 4 h: 4 hours after dosing; for concentration at 8 h: 8 hours after dosing; for concentration at 12 h: 12 hours after dosing; for concentration at 24 h: 24 hours after dosing; for concentration at 48 h: 48 hours after dosing; for concentration at 72 h: 72 hours after dosing; for concentration at 120 h: 120 hours after dosing; for concentration at 0.5 h: .5 hours after dosing
# Procedure: A dose of 0.8 mg of lasofoxifene was administered to 12 healthy, postmenopausal women and blood samples were analyzed periodically as shown in Table 1.
# A 1.0 ml sample of human plasma was analyzed for lasofoxifene according to CEDRA's Procedure TM-234 (CEDRA's address). Internal standard used for this procedure was a pentadeuterated lasofoxifene. The plasma sample containing lasofoxifene and the internal standard was extracted with MTBE. Following centrifugation, the organic layer was transferred to another tube and evaporated. An aliquot of the reconstituted sample extract was then injected onto a SCIEX API^III-PLUS LC-MS-MS instrument equipped with a short ion exchange HPLC column. Peak areas of the m/z 414→97.9 daughter ion of lasofoxifene were measured against the peak areas of the mlz 419→97.9 daughter of the internal standard. Quantitation was performed using a 1/x weighted least squares regression line generated from spiked plasma calibration samples.
# The procedure of Example 1 was repeated with a dose of 10-mg lasofoxifene administered to 8 healthy postmenopausal women. Plasma levels for lasofoxifene are shown for 672 hours in Table 2.
# [1] = female, human, plasma, single oral 10 mg dose, healthy post menopausal women, read-out: Mean plasma concentration, na Lasofoxifene per ml plasma
# [2] = female, human, plasma, single oral dose 0.8 mg, healthy post menopausal women, read-out: Mean plasma concentration, ng Lasofoxifene per ml plasma
smiles,measurement,setting,value
"Oc1ccc2c(c1)CC[C@H](c1ccccc1)[C@@H]2c1ccc(OCCN2CCCC2)cc1 [lasofoxifene, (−)-cis-6-phenyl-5-[4-(2-pyrrolidin-1-yl-ethoxy)-phenyl]-5,6,7,8-tetrahydronaphthalen-2-ol, D-tartrate]",duration of therapeutically effective dose (level),"doses from 10 to 20 mg, see Table 2",up to 30 days
same,concentration at 168 h,"female, human, plasma, oral, single dose of 0.8 mg, healthy women, after 168 hours (1 week), read-out: blood level (concentration)",~0.3 ng/mL
same,concentration at 0 h,"female, human, plasma, single oral 10 mg dose, healthy post menopausal women, 0 hours after dosing, read-out: Mean plasma concentration, na Lasofoxifene per ml plasma",0 ng/mL
same,concentration at 1 h,[1],4.42 ng/mL
same,concentration at 2 h,[1],5.64 ng/mL
same,concentration at 4 h,[1],8.46 ng/mL
same,concentration at 8 h,[1],10.4 ng/mL
same,concentration at 12 h,[1],10.2 ng/mL
same,concentration at 24 h,[1],8.35 ng/mL
same,concentration at 48 h,[1],7.16 ng/mL
same,concentration at 72 h,[1],5.97 ng/mL
same,concentration at 120 h,[1],4.56 ng/mL
same,concentration at 168 h,"female, human, plasma, single oral 10 mg dose, healthy post menopausal women, 168 hours after dosing, read-out: Mean plasma concentration, na Lasofoxifene per ml plasma",3.74 ng/mL
same,concentration at 216 h,"female, human, plasma, single oral 10 mg dose, healthy post menopausal women, 216 hours after dosing, read-out: Mean plasma concentration, na Lasofoxifene per ml plasma",2.88 ng/mL
same,concentration at 264 h,"female, human, plasma, single oral 10 mg dose, healthy post menopausal women, 264 hours after dosing, read-out: Mean plasma concentration, na Lasofoxifene per ml plasma",2.27 ng/mL
same,concentration at 336 h,"female, human, plasma, single oral 10 mg dose, healthy post menopausal women, 336 hours after dosing, read-out: Mean plasma concentration, na Lasofoxifene per ml plasma",1.6 ng/mL
same,concentration at 408 h,"female, human, plasma, single oral 10 mg dose, healthy post menopausal women, 408 hours after dosing, read-out: Mean plasma concentration, na Lasofoxifene per ml plasma",1.05 ng/mL
same,concentration at 480 h,"female, human, plasma, single oral 10 mg dose, healthy post menopausal women, 480 hours after dosing, read-out: Mean plasma concentration, na Lasofoxifene per ml plasma",0.75 ng/mL
same,concentration at 576 h,"female, human, plasma, single oral 10 mg dose, healthy post menopausal women, 576 hours after dosing, read-out: Mean plasma concentration, na Lasofoxifene per ml plasma",0.5 ng/mL
same,concentration at 672 h,"female, human, plasma, single oral 10 mg dose, healthy post menopausal women, 672 hours after dosing, read-out: Mean plasma concentration, na Lasofoxifene per ml plasma",0.31 ng/mL
same,concentration at 0.5 h,[1],2.33 ng/mL
same,concentration at 1 h,[2],0.32 ng/mL
same,concentration at 2 h,[2],0.37 ng/mL
same,concentration at 4 h,[2],0.46 ng/mL
same,concentration at 8 h,[2],0.72 ng/mL
same,concentration at 12 h,[2],0.73 ng/mL
same,concentration at 24 h,[2],0.64 ng/mL
same,concentration at 48 h,[2],0.56 ng/mL
same,concentration at 72 h,[2],0.49 ng/mL
same,concentration at 120 h,[2],0.4 ng/mL
same,concentration at 168 h,"female, human, plasma, single oral dose 0.8 mg, healthy post menopausal women, 168 hours after dosing, read-out: Mean plasma concentration, ng Lasofoxifene per ml plasma",0.34 ng/mL
same,concentration at 0.5 h,[2],0.13 ng/mL
same,initial blood level,"single dose of 0.8 mg, healthy women, within a few hours",0.7 ng/mL
